Measurements reported in patent publication US4668630A, “Stabilized enzymatic composition” (Beckman Instruments, Inc., priority 1984, dated 1987).
Counter-ions that a name gives are not always drawn.

System: lactate dehydrogenase (LD)
Test: LD activity of serial dilution samples on Roche Cobas UV clinical analyzer
Assay type: biochemical, human
Details: Table II, 1-20 mg/ml KO2 CCO2 K in LD SEG
Procedure: Aliquots of this base solution were diluted as shown in Table I with a LD SEG solution devoid of KO2 CCO2 K. The LD activity of each of the serial dilution samples was measured on a Roche Cobas brand UV clinical analyzer and the results are set forth in Table II.

`O=C(O)C(=O)O` [KO2 CCO2 K, potassium oxalate] was tested, and the “effect on LD activity (in words)” value was “inhibition of LD activity”.
